Source: patent US20070041904A1, “Peptides whose uptake by cells is controllable” (priority 2003, published 2007)

What was measured:
[1] = tested on: MDA-MB-231 cells; assay: ACPP uptake in 3D Matrigel culture, MDA-MB-231; assay type: cell-based; conditions: Homo sapiens, 0.1 mM GM6001, read-out: inhibition of uptake of PLGLAG-containing ACPP
Method: FIG. 56: MDA-MB-231 cells in 3-D culture make enough MMPs to take up ACPP over 24 hr. The left two columns show results with e9-XPLGLAG-r9-k(Cy5) without or with 0.1 mM GM6001, a general inhibitor of MMPs. GM6001 also reduces invasiveness of the cells, explaining why the cell cluster is smaller. The right two columns show e9-Xplglag-r9-k(Cy5) as a nonhydrolyzable negative control and r9-k(Cy5) as a positive control. […] Note that these ACPPs have no macromolecular carrier, because there is no need to hinder kidney excretion and because the macromolecular carriers seem to hinder diffusion through the Matrigel and into these organoids, which lack active circulation.
3D tissue cultures in matrigel (FIG. 53) may also be used in the practice of this invention. Such 3D cultures are more realistic models than isolated tumor cells, and offer higher-resolution analysis than is possible in live animals. […]
For these studies, tricine gels, fluorescence imaging, and flow cytometry protocols were used to quantify cleavage and uptake of ACPPs into the 3D cultures. Fluorescence imaging allowed detection of total fluorescence of surface and intracellular peptide, whereas flow cytometry measured fluorescence remaining inside cells after clusters have been digested into single cells and stripped of surface binding via trypsinization. […]

[2] = tested on: HT1080 xenografts and mouse tissues; assay: Biodistribution of radiolabeled ACPPs in mice with HT1080 xenografts; assay type: in vivo, nude mice
Method: FIG. 50: Biodistribution of ^99mTc-labeled albumin-ACPP. Mice xenografted as in FIG. 49 were sacrificed at 6, 24, and 48 hr after injection, organs were dissected, weighed, and radioactivity counted within 2 hrs to obtain % injected dose (% ID)/g tissue as shown in the bar graph (means±s.d., n=4 per time point). The inset table gives the corresponding mean standardized uptake values (SUV) defined as animal weight×(% ID/g tissue).
Serial scans were performed using the Biospace small animal planar scintigraphic imager. The % ID/g (% injected dose retained per gram of tissue) was measured by scintillation counting of tissues harvested post-mortem. The inventors have tested the above ACPPs and three other ^99mTc-labeled ACPPs: (70 KDa-dextran)-e9-XPLGLAG-r9-[DPK-^99mTc(CO)3], (murine serum albumin)-e9-XPLGLAG-r9-[DPK-^99mTc(CO)3], and (PAMAM generation 5 dendrimer)-e9-XPLGLAX-r9-[DPK-^99mTc(CO)3]. […] The tumor margins, however, appear relatively well-defined at earlier time points (see FIG. 48).
Because the ratio of tumor to liver uptake was at variance with the results obtained with fluorescent and magnetic labels and because of the limited literature on the use of DPK, the inventors tested whether the DPK chelator could be responsible for the affinity for normal tissues. Thus, the inventors synthesized and tested (70 KDa dextran)-e9-XPLGLAX-r9-(DOTA-^111In).

[3] = tested on: MMP-9; assay: Fluorescence change upon enzymatic cleavage of self-quenching / FRET ACPPs; assay type: biochemical
Source text: (§1) Thus, such molecules may be administered in vivo, and are cleaved in vivo.
ACPPs with self-quenching fluorophores [Cy5-X-e6-XPLGLAG-r9-Xk(Cy5)] or FRET pairs [Cy7-X-e6-XPLGLAG-r9-Xk(Cy5)] were synthesized. […] The inventors have found these two substrates to be poorly soluble in physiological media, even though the inventors decreased the number of glutamate residues from nine to six so that the molecules would carry more net charge.

[4] = tested on: Enterokinase; assay: Peptide cleavage by enterokinase monitored by HPLC; assay type: biochemical; conditions: 0.38 mM peptide stock, 1 U/μl enterokinase
Method: 10 μl 0.38 mM peptide dissolved in water stock solution was added to 10 μl 1 U/μl Enterokinase (Invitrogen, EKmax) and the cleavage progress was monitored by injecting 5 μl of the reaction mixture on HPLC monitored at 440 nm. The peptide was designed to be a substrate for enterokinase, with cleavage by enterokinase expected between the K and A residues. A High Performance Liquid Chromatography (HPLC) chromatogram of the peptide EDDDDKA-aca-R9-aca-C(Fl)-CONH2 (SEQ ID NO: 3) (before cleavage of linker portion between K and A) is illustrated in FIG. 6A. […] FIG. 6B illustrates the HPLC chromatogram of the peptide of FIG. 6A after cleavage by enterokinase. The new peak was collected and determined on a mass spectrometer. The determined mass corresponded (as expected) to cleavage between K and A in the sequence of EDDDDKA-aca-R9-aca-C(Fl)-CONH2. (SEQ ID NO: 3)
ACPP Cleavage by Enterokinase: 10 μl of a 0.38 mM peptide stock solution dissolved in water was mixed with 10 μl 1 U/μl enterokinase (Invitrogen) and incubated at 37° C. Enzymatic cleavage was monitored by injecting 5 μl of the reaction mixture on HPLC and observing either UVvis absorbance at 440 nm for fluorescein labeled or 650 nm for Cy5 labeled peptide. […] The new peaks were collected and their identities were determined by mass spectroscopy.

[5] = tested on: HT-1080 tumors and mouse tissues; assay: Standardized uptake values in tissues after peptide injection; assay type: in vivo, mice; conditions: 1 hr after injection
Method: Xenografts in Mice. Nude mice (age, 4-6 weeks) were injected s.c. with ≈10^6 HT-1080 cells. Once the tumors had reached ≈5-7 mm in size (typically 1-2 weeks later), animals were anesthetized with 100 mg/kg ketamine and 5 mg/kg midazolam), weighed, and injected with ≈100 μl of 60 μM peptide through the tail vein. Animals were then imaged at various times by using a Nikon f/1.2 camera lens in front of a cooled charge-coupled device camera (SenSys, Photometrics, Tucson, Ariz.). For longer lasting imaging studies, animals were allowed to wake up after 2 h of anesthesia and were reanesthetized at ≈4 and 6 hr for further data collection. Plasma half-lives were determined by the decrease in fluorescence intensity of ≈5-μl blood samples withdrawn periodically into heparinized capillaries. After imaging was ended, animals were killed with halothane, and organs of interest were harvested and weighed. For frozen sectioning, tissues were added to OCT cryopreservative and frozen on dry ice and hexane. […] Cy5 fluorescence was imaged as described above. […] Two sets of standards (liver and kidney) were used to calibrate fluorescence intensity in terms of peptide concentration. From this calibration, the quantity of peptide in 30 mg of tissue for each organ was calculated. SUVs were calculated as the molality of peptide in the tissue divided by the total injected dose as mol/kg of body weight. […]

[6] = tested on: tumor, kidney and liver of xenografted mice; assay: Cyclic ACPP tested in xenografted mice; assay type: in vivo
Method: as §1
To generate cyclic peptides, the inventors synthesized cyclic[succinoyl-PLGLAG-c(11 KDa-mPEG)-e9-XPLGLAG-r9-K]-k(Cy5), which contains two cleavage sites. This cyclic ACCP was tested in xenografted mice. […] Thus, the cyclic substrate requiring two cleavages should favor the liver to an even greater extent. One of skill in the art would recognize that once peptide sequences (preferably two distinct ones) were obtained that individually are preferentially cleaved in the tumor over the liver, then the two-cut ACPPs would become advantageous for the practice of this invention.

Compound: CNC(=O)[C@H](Cc1c[nH]c2ccccc12)NC(=O)[C@@H](CC(=O)NO)CC(C)C [GM6001]
- inhibition at 100 µM [1]: ~50%

Compound: (murine serum albumin)-e9-XPLGLAG-r9-[DPK-^99mTc(CO)3]
- tumor uptake ([2]; HT1080 xenograft): 1-3 % ID/g
- liver uptake ([2]; mouse, in vivo): 12-18 % ID/g

Compound: Cy5-X-e6-XPLGLAG-r9-Xk(Cy5)
- increase of fluorescence intensity upon cleavage by MMP-9 [3]: 3.9 fold

Compound: Cy7-X-e6-XPLGLAG-r9-Xk(Cy5)
- increase in ratio of 650 to 770 nm emissions upon cleavage ([3]; FRET substrate): 6.6 -fold

Compound: EDDDDKA-aca-R9-aca-C(Fl)-CONH2 (EDDDDKAXRRRRRRRRRXX; aminocaproic linkers, fluorescein, C-terminal amide; Description of Artificial Sequence:peptide designed to be substrate for enterokinase; Xaa = aminohexanoic acid (aminocaproic acid); Xaa = cysteinamide modified by fluorescein (Fl))
- time to almost complete cleavage by enterokinase [4]: 15 min

Compound: [11-kDa PEG]-X-e9-XPLG*LAG-r9-Xk(Cy5)
- tumor SUV ratio cleavable vs control [5]: 3.1

Compound: cyclic[succinoyl-PLGLAG-c(11 KDa-mPEG)-e9-XPLGLAG-r9-K]-k(Cy5)
- decrease of tumor signal vs linear peptide ([6]; compared to linear peptide with single cleavage site): 2 factor
- increase of liver signal vs linear peptide ([6]; mouse, in vivo): ~10 factor
